Patent US20220002272A1, “BISARYL LACTAMS AS NRF2 ACTIVATORS” (GLAXOSMITHKLINE INTELLECTUAL PROPERTY DEVELOPMENT LIMITED, priority 2016, published 2022)
pEC50: −log10 of the molar value. Structures can show the parent of a compound that is named as a salt.

What follows are molecules tested on NQ01 specific enzyme activity in BEAS-2B cells (marker for Nrf2 activation) (assay: BEAS-2B NQ01 MTT Assay). Conditions: Homo sapiens; NQ01 specific activity induction in BEAS-2B cells, 48 hours incubation with compound.
Assay type: cell-based
Source text: NAD(P)H:quinone oxidoreductase 1 (NQ01), also called DT diaphorase, is a homodimeric FAD-containing enzyme that catalyzes obligatory NAD(P)H-dependent two-electron reductions of quinones and protects cells against the toxic and neoplastic effects of free radicals and reactive oxygen species arising from one-electron reductions. The transcription of NQ01 is finely regulated by Nrf2, and thus NQ01 activity is a good marker for Nrf2 activation. On day one, frozen BEAS-2B cells (ATCC) are thawed in a water bath, counted, and re-suspended at a concentration of 250,000 cells/mL. Fifty microliters of cells are plated in 384 well black clear-bottomed plates. Plates are incubated at 37° C., 5% CO2 overnight. On day two, plates are centrifuged and 50 nL of compound or controls are added to the cells. Plates are then incubated at 37° C., 5% CO2 for 48 hours. On day four, medium is aspirated from the plate and crude cell lysates are made by adding 13 uL of 1× Cell Signaling Technologies lysis buffer with 1 Complete, Mini, EDTA-free Protease Inhibitor Tablet (Roche) for each 10 mL of lysis buffer. After lysis plates are incubated for 20 minutes at room temperature. Two microliters of lysate are removed for use in Cell Titer Glo assay (Promega) and MTT cocktail is prepared (Prochaska et. al. 1998) for measurement of NQ01 activity. Fifty microliters of MTT cocktail is added to each well, plate is centrifuged, and analyzed on an Envision plate reader (Perkin Elmer) using Absorbance 570 nm label for 30 minutes. Product formation is measured kinetically and the pEC50 of NQ01 specific activity induction is calculated by plotting the change in absorbance (Delta OD/min) versus the log of compound concentration followed by 3-parameter fitting.
pEC50 is the negative log of the EC50.
EC50s<1 nM (+++++), EC50s 10 nM-1 nM (++++), EC50s 10-100 nM (+++), EC50s 100 nM-1 μM (++), EC50s 1-10 μM (+).
Work on Cc1ccc([C@@H](c2ccc3c(nnn3C)c2C)C(C)(C)C(=O)O)cc1CN1CCCN(C)C(=O)C1 [Example 3, (S)-3-(1,4-Dimethyl-1H-benzo[d][1,2,3]triazol-5-yl)-2,2-dimethyl-3-(4-methyl-3-((4-methyl-3-oxo-1,4-diazepan-1-yl)methyl)phenyl)propanoic acid] yielded a pEC50 of 6.00 to 7.00.
CCn1cc(COC(c2ccc(C)c(CN3CC(=O)N(C)CC(C)(C)C3)c2)C(C)(C)C(=O)O)nn1 (stereo not shown) [Example 14, 3-((1-Ethyl-1H-1,2,3-triazol-4-yl)methoxy)-2,2-dimethyl-3-(4-methyl-3-((4,6,6-trimethyl-3-oxo-1,4-diazepan-1-yl)methyl)phenyl)propanoic acid] showed a pEC50 of 6.00 to 7.00.
For CCCN1CC(C)(C)CN(Cc2cc(C(CCc3cn(CC)nn3)C(C)(C)C(=O)O)ccc2Cl)CC1=O (stereo not shown) [Example 15, 3-(4-Chloro-3-((6,6-dimethyl-3-oxo-4-propyl-1,4-diazepan-1-yl)methyl)phenyl)-5-(1-ethyl-1H-1,2,3-triazol-4-yl)-2,2-dimethylpentanoic acid], the pEC50 was 7.00 to 8.00.
For Cc1ccc([C@@H](c2ccc3c(nnn3C)c2C)C(C)(C)C(=O)O)cc1CN1CC(=O)N(C2CC2)CC(C)(C)C1 [Example 1], the pEC50 was 8.00 to 9.00.
Cc1c(C(c2ccc3c(c2)C(N2CC(=O)N(C)CC(C)(C)C2)CC3)C(C)(C)C(=O)O)ccc2c1nnn2C (stereo not shown) [Example 13, 3-(1,4-Dimethyl-1H-benzo[d][1,2,3]triazol-5-yl)-2,2-dimethyl-3-(3-(4,6,6-trimethyl-3-oxo-1,4-diazepan-1-yl)-2,3-dihydro-1H-inden-5-yl)propanoic acid] gave a pEC50 of 6.00 to 7.00.
Work on Cc1ccc(C(c2ccc3c(nnn3C)c2C)C(C)(C)C(=O)O)cc1CN1CC(=O)N(C2CCC2)CC(C)(C)C1 (stereo not shown) [Example 8, 3-(3-((4-Cyclobutyl-6,6-dimethyl-3-oxo-1,4-diazepan-1-yl)methyl)-4-methylphenyl)-3-(1,4-dimethyl-1H-benzo[d][1,2,3]triazol-5-yl)-2,2-dimethylpropanoic acid] yielded a pEC50 of 8.00 to 9.00.
In the case of Cc1ccc(C(c2ccc3c(nnn3C)c2C)C(C)(C)C(=O)O)cc1CN1CC(=O)N(C)CC(C)(C)C1 (stereo not shown) [Example 7, 3-(1,4-Dimethyl-1H-benzo[d][1,2,3]triazol-5-yl)-2,2-dimethyl-3-(4-methyl-3-((4,6,6-trimethyl-3-oxo-1,4-diazepan-1-yl)methyl)phenyl)propanoic acid], the pEC50 was 8.00 to 9.00.
CCN1CC(C)(C)CN(Cc2cc([C@@H](c3ccc4c(nnn4C)c3C)C(C)(C)C(=O)O)ccc2C)CC1=O [Example 4] gave a pEC50 of 8.00 to 9.00.
Work on CCC1CN(Cc2cc(C(c3ccc4c(nnn4C)c3C)C(C)(C)C(=O)O)ccc2C)CC(=O)N(C)C1 (stereo not shown) [Example 5, 3-(1,4-Dimethyl-1H-benzo[d][1,2,3]triazol-5-yl)-3-(3-((6-ethyl-4-methyl-3-oxo-1,4-diazepan-1-yl)methyl)-4-methylphenyl)-2,2-dimethylpropanoic acid] yielded a pEC50 of 8.00 to 9.00.
CCn1cc(CCC(c2ccc(Cl)c(CN3CC(=O)N(C)CC(C)(C)C3)c2)C(C)(C)C(=O)O)nn1 (stereo not shown) [Example 16, 3-(4-Chloro-3-((4,6,6-trimethyl-3-oxo-1,4-diazepan-1-yl)methyl)phenyl)-5-(1-ethyl-1H-1,2,3-triazol-4-yl)-2,2-dimethylpentanoic acid] was tested, and the pEC50 was over 9.00.
Work on Cc1c([C@H](c2ccc3c(c2)[C@@H](N2CC(=O)N(C)CC(C)(C)C2)CC3)C(C)(C)C(=O)O)ccc2c1nnn2C (relative stereo) [Example 11, rel-3S-(1,4-Dimethyl-1H-benzo[d][1,2,3]triazol-5-yl)-2,2-dimethyl-3-(rel-(S)-3-(4,6,6-trimethyl-3-oxo-1,4-diazepan-1-yl)-2,3-dihydro-1H-inden-5-yl)propanoic acid] yielded a pEC50 of 8.00 to 9.00.
In the case of Cc1ccc(C(c2ccc3c(nnn3C)c2C)C(C)(C)C(=O)O)cc1CN1CC(=O)N(CC2CC2)CC(C)(C)C1 (stereo not shown) [Example 9, 3-(3-((4-(Cyclopropylmethyl)-6,6-dimethyl-3-oxo-1,4-diazepan-1-yl)methyl)-4-methylphenyl)-3-(1,4-dimethyl-1H-benzo[d][1,2,3]triazol-5-yl)-2,2-dimethylpropanoic acid], the pEC50 was 7.00 to 8.00.
Work on Cc1ccc([C@@H](c2ccc3c(nnn3C)c2C)C(C)(C)C(=O)O)cc1CN1CC(=O)N(C)CC(C)(C)C1 [Example 6, (S)-3-(1,4-Dimethyl-1H-benzo[d][1,2,3]triazol-5-yl)-2,2-dimethyl-3-(4-methyl-3-((4,6,6-trimethyl-3-oxo-1,4-diazepan-1-yl)methyl)phenyl)propanoic acid, 0.3Formic acid salt] yielded a pEC50 of 8.00 to 9.00.
Work on Cc1c(C(c2ccc3c(c2)C(N2CC(=O)N(C)CC(C)(C)C2)CC3)C(C)(C)C(=O)O)ccc2c1nnn2C (single isomer, unassigned) [Example 12] yielded a pEC50 of 7.00 to 8.00.
CCCN1CC(C)(C)CN(Cc2cc([C@@H](c3ccc4c(nnn4C)c3C)C(C)(C)C(=O)O)ccc2C)CC1=O [Example 2] was tested, and the pEC50 was 8.00 to 9.00.
In the case of Cc1c([C@H](c2ccc3c(c2)[C@H](N2CC(=O)N(C)CC(C)(C)C2)CC3)C(C)(C)C(=O)O)ccc2c1nnn2C (relative stereo) [Example 10, rel-3S-(1,4-Dimethyl-1H-benzo[d][1,2,3]triazol-5-yl)-2,2-dimethyl-3-(rel-(R)-3-(4,6,6-trimethyl-3-oxo-1,4-diazepan-1-yl)-2,3-dihydro-1H-inden-5-yl)propanoic acid], the pEC50 was over 9.00.
